In US20240335548A1, “MACROMOLECULES” (Starpharma Pty Ltd, priority 2011, published 2024):
Like-named read-outs stand apart in the source and are kept apart here.

Tests used:
[1] = Water solubility study on drug loaded dendrimers; type: physicochemical
Experimental: Protocol: To 30 mg of dendrimer (freeze-dried from water) was added 100 μL of deionised water. After mixing for 10 minutes, additional aliquots of water (10-30 μL per addition) were added with vortexing and incubation for 10 mins until full dissolution was obtained. This amount is represented in Table 1 as the water solubility of the dendrimer. The equivalent drug solubility is determined by multiplying the % drug loading/100 and is represented in Table 1 (column 3) as Equivalent drug solubility on dendrimer. Finally, the fold increase is obtained by dividing the Equivalent drug solubility on dendrimer by the solubility of the drug and is represented in Table 1 (column 4).

[2] = Plasma stability study: docetaxel release in mouse plasma; type: in vitro ADME; settings: 37° C.
Experimental: Protocol: To 0.5 mL of mouse plasma was added 0.1 mL of dendrimer solution (2 mg/mL, drug equivalent in saline). The mixtures were vortexed (30 s) then incubated at 37° C. At various timepoints (0.5, 2.5, 4.5, 22 hours) 0.1 mL aliquots were removed and added to 0.2 mL ACN. The resulting mixtures were vortexed (30 s), centrifuged (10 min, 4° C.) filtered and analysed by HPLC (C8, 3.9×150 mm, 5 μm, wavelength=243 nm, 10 μL injections, gradient: 40-80% ACN/H2O (1-7 min), 80% ACN (7-9 min), 80-40% ACN (9-11 min), 40% ACN (11-15 min), 10 mM ammonium formate, pH 7.40) which when compared against a standard (2 mg//mL) provided the concentration of free docetaxel in the sample.

ES2 (Ovarian) = test: Cell growth inhibition SRB assay; type: cell-based
Experimental: (§1) All solutions were prepared in saline (except docetaxel which was made in ethanol). All solutions were stored at −20° C. All values were based on the equivalent drug loading.

H460 (Lung) = test: Cell growth inhibition SRB assay; type: cell-based
Experimental: as §1

PC-3 (Prostate) = test: Cell growth inhibition SRB assay; type: cell-based
Experimental: as §1

A2780 = test: IC50 using the MTT assay; type: cell-based; settings: 72 hours
Experimental: (§2) The IC50 using the MTT assay [Wilson, Anne P. (2000). “Chapter 7: Cytotoxicity and viability”. In Masters, John R. W. Animal Cell Culture: A Practical Approach. Vol. 1 (3rd ed.). Oxford: Oxford University Press] was determined against various cancer cell lines after 72 hours.

A549 = test: IC50 using the MTT assay; type: cell-based; settings: 72 hours
Experimental: as §2

DU-145 = test: IC50 using the MTT assay; type: cell-based; settings: 72 hours
Experimental: as §2

H460 = test: IC50 using the MTT assay; type: cell-based; settings: 72 hours
Experimental: as §2

HCT-116 = test: IC50 using the MTT assay; type: cell-based; settings: 72 hours
Experimental: as §2

HT-29 = test: IC50 using the MTT assay; type: cell-based; settings: 72 hours
Experimental: as §2

MCF-7 = test: IC50 using the MTT assay; type: cell-based; settings: 72 hours
Experimental: as §2

PC-3 = test: IC50 using the MTT assay; type: cell-based; settings: 72 hours
Experimental: as §2

A2058 (Melanoma) = test: Cell growth inhibition SRB assay; type: cell-based
Experimental: as §1

A549 (Lung) = test: Cell growth inhibition SRB assay; type: cell-based
Experimental: as §1

DU145 (Prostate) = test: Cell growth inhibition SRB assay; type: cell-based
Experimental: as §1

HCT116 (Colon) = test: Cell growth inhibition SRB assay; type: cell-based
Experimental: as §1

HT29 (Colon) = test: Cell growth inhibition SRB assay; type: cell-based
Experimental: as §1

MCAS (Ovarian) = test: Cell growth inhibition SRB assay; type: cell-based
Experimental: as §1

MDA-MB-231 (Breast) = test: Cell growth inhibition SRB assay; type: cell-based
Experimental: as §1

[3] = day 16, one day after final dose
Experimental: The 20 mice were randomised into 5 groups of four mice (mean tumour volume ˜90 mm^3). Animals were eye bled in the morning for baseline blood cell counts and then drug dosing commenced later that day (day 1). […] A second eye bleed was performed on day 11 (Table 7 A-C). Mice were killed one day following the final drug dose (day 16).

[4] = deionised water, until full dissolution
[5] = equivalent drug solubility divided by solubility of the drug
[6] = water solubility x % drug loading/100
[7] = ES2, 72 hours, equivalent drug loading, average of duplicate
[8] = H460, 72 hours, equivalent drug loading, average of duplicate
[9] = PC-3, 72 hours, equivalent drug loading, average of duplicate
[10] = A2058, 72 hours, equivalent drug loading, average of duplicate
[11] = A549, 72 hours, equivalent drug loading, average of duplicate
[12] = DU145, 72 hours, equivalent drug loading, average of duplicate
[13] = HCT116, 72 hours, equivalent drug loading, average of duplicate
[14] = HT29, 72 hours, equivalent drug loading, average of duplicate
[15] = MCAS, 72 hours, equivalent drug loading, average of duplicate
[16] = MDA-MB-231, 72 hours, equivalent drug loading, average of duplicate

BHALys[Lys]32[α-Glu-Testosterone]32[ε-PEG1100]32 [22 (b)]
Equivalent drug solubility on dendrimer [1]: 14.7 mg/mL | Fold increase in drug solubility [1]: 610 | Water solubility of dendrimer [1]: >89 mg/mL

BHALys[Lys]32[α-MIDA-DTX]32[ε-PEG1100]32 [6 (b)]
Water solubility of dendrimer [1, 4]: 100 mg/mL | Fold increase in drug solubility [1, 5]: 6400 | Equivalent drug solubility on dendrimer [1, 6]: 32 mg/mL | Docetaxel release in plasma ([2]; 0.5 hours): 7.5 percentage of total docetaxel | Docetaxel release in plasma ([2]; 2.5 hours): 9 percentage of total docetaxel | Docetaxel release in plasma ([2]; 22 hours): 23.5 percentage of total docetaxel | GI50 (ES2 (Ovarian)): 12.5 nM | GI50 (H460 (Lung)): 11 nM | GI50 (PC-3 (Prostate)): 10.5 nM

BHALys[Lys]32[α-o-PDA-DTX]32[ε-PEG1100]32 [7 (b)]
Water solubility of dendrimer [1, 4]: 91 mg/mL | Fold increase in drug solubility [1, 5]: 5000 | Equivalent drug solubility on dendrimer [1, 6]: 25 mg/mL | Docetaxel release in plasma ([2]; 0.5 hours): 20.5 percentage of total docetaxel | Docetaxel release in plasma ([2]; 2.5 hours): 32 percentage of total docetaxel | Docetaxel release in plasma ([2]; 22 hours): 71.5 percentage of total docetaxel | GI50 (ES2 (Ovarian)): 8 nM | GI50 (H460 (Lung)): 4.5 nM | GI50 (PC-3 (Prostate)): 6.5 nM

BHALys[Lys]32[α-GFLG-Glu-DTX]32[ε-PEG1100]32 [15 (c)]
IC50 (A2780): 13.6 nM | IC50 (A549): 8.1 nM | IC50 (DU-145): 29.5 nM | IC50 (H460): 31.8 nM | IC50 (HCT-116): 7.2 nM | IC50 (HT-29): 5.7 nM | IC50 (MCF-7): 8.3 nM | IC50 (PC-3): 11.8 nM

BHALys[Lys]32[α-PSSP-DTX]32[ε-PEG1100]32 [2 (b)]
Water solubility of dendrimer [1]: 57 mg/mL | Fold increase in drug solubility [1, 5]: 2800 | Equivalent drug solubility on dendrimer [1, 6]: 14 mg/mL | Docetaxel release in plasma ([2]; 0.5 hours): 5 percentage of total docetaxel | Docetaxel release in plasma ([2]; 2.5 hours): 8 percentage of total docetaxel | Docetaxel release in plasma ([2]; 22 hours): 15.5 percentage of total docetaxel | GI50 (ES2 (Ovarian); [7]): 116 nM | GI50 (H460 (Lung); [8]): 73 nM | GI50 (PC-3 (Prostate); [9]): 110 nM

BHALys[Lys]32[α-Glu-DTX]32[ε-PEG1100]32 [5 (b)]
Water solubility of dendrimer [1, 4]: 214 mg/mL | Fold increase in drug solubility [1, 5]: 4000 | Equivalent drug solubility on dendrimer [1, 6]: 75 mg/mL | Docetaxel release in plasma ([2]; 0.5 hours): 0 percentage of total docetaxel | Docetaxel release in plasma ([2]; 2.5 hours): 0 percentage of total docetaxel | Docetaxel release in plasma ([2]; 22 hours): 4 percentage of total docetaxel | GI50 (A2058 (Melanoma)): 71.5 nM | GI50 (A549 (Lung)): 56.5 nM | GI50 (DU145 (Prostate)): 148 nM | GI50 (ES2 (Ovarian)): 116 nM | GI50 (H460 (Lung)): 106 nM | GI50 (HCT116 (Colon)): 85.5 nM | GI50 (HT29 (Colon)): 97.5 nM | GI50 (MCAS (Ovarian)): 252 nM | GI50 (MDA-MB-231 (Breast)): 50.5 nM | GI50 (PC-3 (Prostate)): 160 nM

BHALys[Lys]32[α-DGA-Testosterone]32[ε-PEG1100]32 [20 (b)]
Equivalent drug solubility on dendrimer [1]: 11.5 mg/mL | Fold increase in drug solubility [1]: 482 | Water solubility of dendrimer [1]: >75 mg/mL

BHALys[Lys]32[α-DGA-Testosterone]32[ε-PEG570]32 [Example 21]
Equivalent drug solubility on dendrimer [1]: 14.8 mg/mL | Fold increase in drug solubility [1]: 618 | Water solubility of dendrimer [1]: >81 mg/mL

BHALys[Lys]32[α-4-HSBA-4Aba-DTX]32[ε-PEG1100]32 [1 (b)]
GI50 (A2058 (Melanoma); [10]): 9.5 nM | GI50 (A549 (Lung); [11]): 13 nM | GI50 (DU145 (Prostate); [12]): 11.5 nM | GI50 (ES2 (Ovarian); [7]): 16.5 nM | GI50 (H460 (Lung); [8]): 13 nM | GI50 (HCT116 (Colon); [13]): 8.5 nM | GI50 (HT29 (Colon); [14]): 12.5 nM | GI50 (MCAS (Ovarian); [15]): 29 nM | GI50 (MDA-MB-231 (Breast); [16]): 11.5 nM | GI50 (PC-3 (Prostate); [9]): 17 nM

BHALys[Lys]32[α-PEG2-DTX]32[ε-PEG1100]32 [10 (b)]
GI50 (ES2 (Ovarian); [7]): 10.5 nM | GI50 (H460 (Lung); [8]): 6.5 nM | GI50 (PC-3 (Prostate); [9]): 9.5 nM

BHALys[Lys]32[α-GGG-Glu-DTX]32[ε-PEG1100]32 [14 (c)]
IC50 (A2780): 4.6 nM | IC50 (A549): 1.5 nM | IC50 (DU-145): 7.3 nM | IC50 (H460): 4.3 nM | IC50 (HCT-116): 2.6 nM | IC50 (HT-29): 0.5 nM | IC50 (MCF-7): 0.5 nM | IC50 (PC-3): 3.8 nM

BHALys[Lys]32[α-PDT-DTX]32[ε-PEG1100]32 [9 (b)]
GI50 (ES2 (Ovarian); [7]): 888 nM | GI50 (H460 (Lung); [8]): 365 nM | GI50 (PC-3 (Prostate); [9]): 618 nM

BHALys[Lys]32[α-GILGVP-Glu-DTX]32[ε-t-PEG2300]32 [Example 17]
IC50 (A2780): 291 nM | IC50 (A549): 160 nM | IC50 (DU-145): 290 nM | IC50 (H460): 603 nM | IC50 (HCT-116): 216 nM | IC50 (HT-29): 85 nM | IC50 (MCF-7): 93.7 nM | IC50 (PC-3): 359 nM

BHALys[Lys]32[α-Glu-GEM]32[ε-PEG1100]32 [13 (b)]
GI50 (A2058 (Melanoma); [10]): 100 nM | GI50 (A549 (Lung); [11]): 73 nM | GI50 (DU145 (Prostate); [12]): 99 nM | GI50 (ES2 (Ovarian); [7]): 48 nM | GI50 (H460 (Lung); [8]): 127 nM | GI50 (HCT116 (Colon); [13]): 30.5 nM | GI50 (HT29 (Colon); [14]): 117 nM | GI50 (MCAS (Ovarian); [15]): 117 nM | GI50 (MDA-MB-231 (Breast); [16]): 50.5 nM | GI50 (PC-3 (Prostate); [9]): 288 nM

BHALys[Lys]32[α-Glu-PTX]32[ε-PEG2300]32 [Example 12]
Water solubility of dendrimer [1]: 15 mg/mL | Fold increase in drug solubility [1, 5]: 10000 | Equivalent drug solubility on dendrimer [1, 6]: 3 mg/mL

BHALys[Lys]32[α-Glu-Testosterone]32[ε-PEG570]32 [Example 23]
Equivalent drug solubility on dendrimer [1]: 26.6 mg/mL | Fold increase in drug solubility [1]: 1109 | Water solubility of dendrimer [1]: >125 mg/mL

BHALys[Lys]32[α-PEG1100]32[ε-TDA-DTX]32 [Example 18]
IC50 (A2780): 5.7 nM | IC50 (A549): 20.3 nM | IC50 (DU-145): 11.6 nM | IC50 (H460): 7.5 nM | IC50 (HCT-116): 2.9 nM | IC50 (HT-29): 1.8 nM | IC50 (MCF-7): 3.3 nM | IC50 (PC-3): 5.9 nM

BHALys[Lys]32[α-4-HSBA-Cp-DTX]32[ε-PEG1100]32 [Example 4 (c)]
Water solubility of dendrimer [1, 4]: 109 mg/mL | Equivalent drug solubility on dendrimer [1, 6]: 22 mg/mL | Docetaxel release in plasma ([2]; 0.5 hours): 1.5 percentage of total docetaxel | Docetaxel release in plasma ([2]; 2.5 hours): 10 percentage of total docetaxel | Docetaxel release in plasma ([2]; 22 hours): 17.5 percentage of total docetaxel | GI50 (A2058 (Melanoma); [10]): 8 nM | GI50 (A549 (Lung); [11]): 8.5 nM | GI50 (DU145 (Prostate); [12]): 12 nM | GI50 (ES2 (Ovarian); [7]): 8.6 nM | GI50 (H460 (Lung); [8]): 11 nM | GI50 (HCT116 (Colon); [13]): 9 nM | GI50 (HT29 (Colon); [14]): 9.5 nM | GI50 (MCAS (Ovarian); [15]): 20 nM | GI50 (MDA-MB-231 (Breast); [16]): 6.5 nM | GI50 (PC-3 (Prostate); [9]): 21.5 nM | Mean Tumour Weights (g) (sd) [3]: 0.079 g
